# System: patients with type 2 diabetes mellitus
# Experiment: randomized, double-blind, placebo controlled Phase 2a clinical trial, 28 days once daily oral dosing
# Format: in vivo, human
# Conditions: for Change in Weight, change from baseline / Seated Diastolic BP, change from baseline / Seated Systolic BP, change from baseline / Serum Triglyceride, change from baseline: four-week treatment; for Change in Weight, change from baseline: placebo −2.2; for Seated Diastolic BP, change from baseline: placebo −2.9; for Seated Systolic BP, change from baseline: placebo −4.3; for Serum Triglyceride, change from baseline: placebo −20.2; for reduction of average percent HbA1c after four weeks of dosing: placebo 0.49; for reduction in fasting plasma glucose level at week four: placebo 15.1 mg/dl
# Method: Certain aspects of this invention may be understood with reference to the figures, which provide results obtained from a randomized, double-blind, placebo controlled Phase 2a clinical trial, wherein 150 mg and 300 mg doses of a compound of the invention were orally administered once daily to patients with type 2 diabetes mellitus.
# This invention is based, in part, on findings—provided herein—obtained from a randomized, double-blind, placebo controlled Phase 2a clinical trial, wherein 150 mg/day and 300 mg/day doses of a dual SGLT1/2 inhibitor were administered to patients with type 2 diabetes mellitus. The dual SGLT1/2 inhibitor was (2S,3R,4R,5S,6R)-2-(4-chloro-3-(4-ethoxybenzyl)phenyl)-6-(methylthio)tetrahydro-2H-pyran-3,4,5-triol, which has the structure:
# Patients (n=36) with type 2 diabetes mellitus received one of two oral doses of (2S,3R,4R,5S,6R)-2-(4-chloro-3-(4-ethoxybenzyl)phenyl)-6-(methylthio)tetrahydro-2H-pyran-3,4,5-triol, given as 150 mg or 300 mg once daily, or matching placebo, for 28 days.
# In this study, patients on metformin were taken off of the drug 16 days prior to day 0, the day dosing first began.
# [1] = both treatment groups (150 mg/day and 300 mg/day)
structure (smiles),measurement,setting,value
"CCOc1ccc(Cc2cc([C@@H]3O[C@H](SC)[C@@H](O)[C@H](O)[C@H]3O)ccc2Cl)cc1 [(2S,3R,4R,5S,6R)-2-(4-chloro-3-(4-ethoxybenzyl)phenyl)-6-(methylthio)tetrahydro-2H-pyran-3,4,5-triol]","Change in Weight, change from baseline",150 mg (n = 12),−3.4%
same,"Seated Diastolic BP, change from baseline",150 mg (n = 12),−5.8 mmHg
same,"Seated Systolic BP, change from baseline",150 mg (n = 12),−10.3 mmHg
same,"Serum Triglyceride, change from baseline",150 mg (n = 12),-66.6 mg/dL
same,reduction of average percent HbA1c after four weeks of dosing,"150 mg dose group, p=0.036, baseline 8.22%",1.15%
same,reduction in fasting plasma glucose level at week four,150 mg dose group,53.4 mg/dL
same,dose-limiting toxicities,"150 mg or 300 mg once daily, 28 days",no evidence of dose-limiting toxicities was observed
same,adverse events,"150 mg or 300 mg once daily, 28 days, evenly distributed across all dose groups, including placebo",generally mild
same,"insulin sensitivity, homeostatic model assessment (HOMA) (FIG. 4)","150 mg/day and 300 mg/day groups vs placebo, day 27",improved insulin sensitivity
same,mean plasma glucose AUC (FIG. 3),"150 mg/day and 300 mg/day groups, after one day of treatment",statistically significant decreases
same,"Change in Weight, change from baseline",300 mg (n = 12),−3.7%
same,"Seated Diastolic BP, change from baseline",300 mg (n = 12),−5.3 mmHg
same,"Seated Systolic BP, change from baseline",300 mg (n = 12),−13.1 mmHg
same,"Serum Triglyceride, change from baseline",300 mg (n = 12),-62.8 mg/dL
same,reduction of average percent HbA1c after four weeks of dosing,"300 mg dose group, p=0.017, baseline 8.50%",1.25%
same,percentage of patients achieving fasting plasma glucose levels of <105 mg/dl at week four,"300 mg dose group, p=0.037 vs placebo",42%
same,reduction in fasting plasma glucose level at week four,300 mg dose group,65.9 mg/dL
same,share of patients with HbA1c levels reduced to less than or equal to 7%,"both dose groups (150 mg and 300 mg), four weeks",half
same,glucosuria over the 28-day dosing period compared to placebo,"both dose levels (150 mg and 300 mg once daily, oral), preliminary data",significant and sustained glucosuria
same,glucose tolerance vs placebo group (FIG. 2),[1],greater glucose tolerance
same,"mean arterial pressure, day 28 compared to baseline (FIG. 10)",[1],decreased
same,post-prandial glucose levels compared to placebo (FIG. 5),[1],"rapid, statistically significant decrease"

# Reference: patent publication US20160022718A1, “METHODS OF LOWERING BLOOD PRESSURE” (LEXICON PHARMACEUTICALS, INC., priority 2010, published 2016)
